The values below are quoted from earlier work in PMC6343925, “Cholesterol re-organisation and lipid de-packing by arginine-rich cell penetrating peptides: Role in membrane translocation” (PLoS ONE, 2019).

For this data set the following is noted: membranes contained PG; same experimental approach.

No end group written: not given here.

As to `N=C(N)NCCC[C@H](NC(=O)[C@H](CCCNC(=N)N)NC(=O)[C@H](CCCNC(=N)N)NC(=O)[C@H](CCCNC(=N)N)NC(=O)[C@H](CCCNC(=N)N)NC(=O)[C@H](CCCNC(=N)N)NC(=O)[C@H](CCCNC(=N)N)NC(=O)[C@H](CCCNC(=N)N)NC(=O)[C@@H](N)CCCNC(=N)N)C(N)=O` [R9, Nona-arginine], the “translocation into LUVs” value is “able to translocate”.

In the case of RRWWRRWRR-NH2 [RW9], the “translocation into LUVs” value is “able to translocate”.
